Reference: US8426369B2, “Prevention and treatment of colon cancer” (Rutgers, The State University of New Jersey, priority 2006, dated 2013)
Where two headings read alike, the source gives them in different places.

Key:
[1] = 25 mg pterostilbene/kg diet, hypercholesterolemic hamsters; cited from earlier work
p-Smad3 = assay: Activated Smad levels (p-Smad3) in HT-29 cells; type: cell-based, human; conditions: HT-29, data not shown
Description: The significance of the transforming growth factor (TGF-β) pathway in down-regulating iNOS expression by pterostilbene was also investigated since TGF-β is a very potent inhibitor of iNOS and cytokines regulate Smad signaling of the TGF-β pathway. However, there was no effect of pterostilbene on activated Smad levels (p-Smad3) or in inducing TGF-β ligands (data not shown).

p38 = assay: Western blot of phosphorylated p38 in cytokine-treated HT-29 cells; type: cell-based, human
Method: (§1) The cell culture conditions and the reagents used in this example were described in Example 32. Whole cell extracts were collected after the various treatments and analyzed by western blotting. The protein samples were separated on 4-15% SDS-PAGE gels (Biorad, Hercules, Calif.) followed by transfer to a polyvinylidene fluoride membrane. The membranes were blocked with 5% milk in Tris buffer for 1 h and then incubated with the appropriate primary antibody solutions overnight at 4° C. The membranes were washed with Tris buffer, and incubated with horseradish peroxidase conjugated secondary antibody solutions for 1 h at room temperature.
(§2) The protein bands were visualized using a chemiluminescence based kit from Amersham Biosciences (Buckinghamshire, UK). The primary antibodies against iNOS, COX-2, IκBα, cyclin D1, c-myc (Santa Cruz Bio-technology, Santa Cruz, Calif.), phospho-STAT3, phospho-Erk1/2, phospho-JNK1/2, phospho-p38, phospho-Akt, phospho-ATF2, phospho-Elk1, PARP (Cell Signaling Technology Inc., Beverly, Mass.) and actin (Sigma, St. Louis, Mo.) and secondary antibodies (Santa Cruz Biotechnology, Santa Cruz, Calif.) were used for probing the abundance of the target protein in the samples.

p-JNK1/2 = assay: Western blot of p-JNK1/2 in cytokine-treated HT-29 cells; type: cell-based, human
Method: as §1, §2

cleaved PARP = assay: Western blot of cleaved PARP in HT-29 cells (apoptosis marker); type: cell-based, human; conditions: 9 h or 18 h
Method: (§3) The cells were incubated with different concentrations of pterostilbene for 1, 2 and 3 days, and cell proliferation was estimated by measuring [^3H]thymidine incorporated into DNA. […] In order to evaluate whether pterostilbene potentiates cell cycle arrest or apoptosis in HT-29 cells, the effect of pterostilbene on the proteins regulating the cell cycle and/or apoptosis pathways was examined. Cells treated with pterostilbene for 9 h or 18 h were harvested and protein samples were analyzed by Western blotting (FIG. 8B).
as §1
(§4) The protein bands were visualized using a chemiluminescence based kit from Amersham Biosciences (Buckinghamshire, UK). […]

COX-2 mRNA = assay: Quantitative RT-PCR of cytokine-induced COX-2 mRNA in HT-29 cells; type: cell-based, human; conditions: 10 and 30 μM
Method: (§5) The cell culture conditions and the reagents used in this example were described in Example 32. The gene-mediated expression of iNOS and COX-2 are reported to be regulated at both the transcriptional and translational levels. In order to understand the effect of pterostilbene on cytokine-induced expression of proinflammatory enzymes and cytokines, RNA samples after treatment of HT-29 cells with cytokines and/or pterostilbene were analyzed by quantitative RT-PCR for the induction of mRNA levels of iNOS, COX-2, IL-1β, IFN-γ and TNF-α genes.
(§6) To determine the changes of mRNA levels by pterostilbene and cytokines, quantitative RT-PCR analysis was utilized, as described previously (Lee et al., Mol Pharmacol 2006; 69(6):1840-1848). Briefly, the cells were incubated with compounds for indicated period and the cells were then lysed using Trizol to extract RNA. RNA was reverse transcribed into cDNA using a high capacity cDNA archive kit (Applied Biosystems, Foster City, Calif.). The cDNA was used for quantitative PCR which was run on the ABI Prism […] sequence Detection System. The primers for the iNOS, COX-2, IFN-γ, TNF-α, IL-1β and GAPDH were obtained from Applied Biosystems (Foster City, Calif.).

c-myc = assay: Western blot of c-myc in HT-29 cells; type: cell-based, human; conditions: 9 h or 18 h, especially at 9 h
Method: as §3, §1, §4

TNF-α mRNA = assay: Quantitative RT-PCR of cytokine-induced TNF-α mRNA in HT-29 cells; type: cell-based, human
Method: as §5, §6

[2] = test system: azoxymethane-induced aberrant crypt foci (ACF); assay: Azoxymethane-induced aberrant crypt foci (ACF) in rat colon, dietary pterostilbene; type: in vivo, male F344 rats; conditions: for inhibition at 40 ppm: Rattus norvegicus, feed or water, 40 ppm in diet, compared to control diet
Method: Weanling male F344 rats were obtained from Charles River Breeding Laboratories (Kingston, N.Y.). All experimental diets were purchased from Research Diets (New Brunswick, N.J.) and stored at 4° C. All animals were randomly distributed by weight into control and experimental groups and housed in plastic cages with filter tops (three per cage) under controlled conditions of a 12-hr light and dark cycle, 50% humidity and 21° C. temperature. Animals had access to food and water at all times. Food cups were replenished with fresh diet two times weekly.
Beginning at 5 weeks of age, all rats were fed the modified American Institute of Nutrition-76A (AIN-76A) diet. At 7 weeks of age, the animals were given s.c. injections of azoxymethane (AOM) (CAS no. 25843-45-2, Ash Stevens, Detroit, Mich.) once weekly for 2 weeks at a dose rate of 15 mg/kg body weight. One day after the second AOM injection, groups of animals (n=9 per group) were maintained on AIN-76A diet alone and AIN-76A diet containing 40 ppm pterostilbene. […] See, e.g., U.S. Application Publication No. US 2006-0057231 A1.
On the average, the animal consumed about 0.6 mg pterostilbene per day. All rats were weighed once weekly until termination of the study at 8 weeks after the second AOM treatment were sacrificed by CO2 asphyxiation. After laparotomy, the entire stomach, small intestine, and large intestine were resected. The organs were opened longitudinally, and the contents were flushed with normal saline.
For the ACF analysis, the colons were fixed flat between two pieces of filter paper in 10% buffered formalin for a minimum of 24 hr. The colons were then cut into 2-cm segments, starting at the anus. They were stained with 0.2% methylene blue in Krebs-Ringer solution for 5-10 min, and were then placed mucosal side up on a microscope slide and observed through a light microscope. ACF were counted and recorded according to standard procedures that are being used routinely in the laboratory. […] The parameters used to assess the aberrant crypts were their occurrence and multiplicity. Crypt multiplicity was determined as the number of crypts in each focus. Multicrypts were categorized as containing up to four or more aberrant crypts/focus.
Total number of ACF/colon and multiple aberrant crypts/focus were counted and the data were analyzed by Student's t-test. The PCNA labeling index (PI) was calculated as the [(number of positive cells)/(total number of cells)]×100 for each field which is averaged to get the PI for each section. The significance of treatment between the groups was analyzed by Student's t-Test.

phospho-STAT3 = assay: Western blot of phospho-STAT3 in cytokine-treated HT-29 cells; type: cell-based, human
Method: as §1, §2
The significance of the JAK-STAT pathway in HT-29 cells was evaluated by probing for phospho-STAT3. Cytokines activated the STAT pathway, as shown by a strong induction of phospho-STAT3.

[3] = 40 ppm in AIN-76A diet, 8 weeks after second AOM treatment, Mean ± S.D. (n = 9)

COc1cc(/C=C/c2ccc(O)cc2)cc(OC)c1 [pterostilbene, (E)-4-(3,5-dimethoxystyryl)phenol]
plasma cholesterol and lipoproteins [1]: lowered plasma cholesterol and lipoproteins | activated Smad levels (p-Smad3) (p-Smad3): no effect | activation of p38 by cytokines (p38): strongly inhibited | p-JNK1/2 protein levels (p-JNK1/2): only a small effect | level of cleaved PARP (cleaved PARP): increased | COX-2 mRNA induction by the cytokine mixture (COX-2 mRNA): strongly inhibited | c-myc level (c-myc): effective in reducing | TNF-α mRNA induction by the cytokine mixture (TNF-α mRNA): weak inhibitory effect | >4 ACF/colon [2, 3]: 25.1 ± 5.6 | ACF/colon [2, 3]: 117 ± 12 | inhibition at 40 ppm ([2]; read-out: inhibition of multiple aberrant crypts/focus): 29% | inhibition at 40 ppm ([2]; read-out: inhibition of total ACF/colon): 57% | level of induced phospho-STAT3 (phospho-STAT3): did not alter
